Each structure is given as a SMILES string.

The subject of assay [1] is patients with Cocaine Use Disorder (CUD). Nature of the assay: Phase 2 trial: proportion of cocaine use days by TLFB self-report. Type of assay: in vivo, human. The following applies: for difference between groups in monthly proportion of cocaine use: MMRM. As to the method: This was a Phase 2 randomized, patient- and investigator-blinded, placebo-controlled, parallel-group study.
Patients diagnosed with Cocaine Use Disorder (CUD) according to Diagnostic and Statistical Manual of Mental Disorders, 5th Ed.
This study was conducted in patients with CUD and consisted of about a 21-day screening period followed by a 7-day baseline period, a 98-day outpatient treatment period, and an end of study visit evaluation about 14 days after the last study drug administration ([…]. A). Study treatment was taken twice daily (separated by about 12-hour intervals) with food. For patients in the mavoglurant arm [mavoglurant (free form) provided as modified release formulation (e.g. in WO2014/199316)], an uptitration regimen was performed for 14 days (50 mg b.i.d. from Days 1 to 7 and 100 mg b.i.d from Days 8 to 14) and was followed by 200 mg b.i.d for 84 days.
The primary endpoint was the proportion of cocaine use days during the treatment period, assessed by timeline followback [TLFB] cocaine self-report report. The secondary endpoints included a weekly urine analysis for a log-transformed quantitative measure of cocaine metabolite benzoylecgonine (BE), safety assessments (clinical parameters, suicidal ideation, adverse events [AE] and serious adverse events [SAE] at every visit), and pre- and post-dose levels of mavoglurant in the plasma. Exploratory endpoints included Clinical Global Impression (CGI; 2 components: CGI-S [rated illness severity], CGI-I [rated change from baseline]).
For the primary endpoint, a Bayesian analysis was conducted on the proportion of cocaine use days. It was assumed to be a continuous outcome with a normal distribution. The proportion of cocaine use days over the treatment period was analyzed using an analysis of covariance (ANCOVA) model with baseline use as a covariate. The profiles of consumption over time were compared between treatment groups through analyses of longitudinal data (weekly use and monthly use) using linear mixed model for repeated measures (MMRM). The model evaluated the posterior probability that the difference in proportions of cocaine use days between mavoglurant and placebo was <0 and that it was <−10%. A difference of 10% of days was deemed the minimal clinically relevant effect and a difference of 20% would be a very promising effect based on the literature in this indication. The study was deemed to show a positive signal of efficacy if the following two proof of concept (PoC) criteria were met:
The primary endpoint was the proportion of cocaine use days by TLFB during the treatment period (Day 1 to last day of treatment). For each subject, the proportion of cocaine use days was calculated by dividing the number of days of cocaine use during the treatment period with the treatment period, i.e., 98 days for completers and number of days between Day 1 and day of last dose in case of premature discontinuation of study treatment. Cocaine consumption was recorded daily (Yes/No) using the TLFB during the entire study.
Patient Reported Outcome included: • 1. The TLFB cocaine: is a cocaine assessment method that obtains estimates of daily cocaine intake and has been evaluated with clinical and nonclinical populations. Using a calendar, people provide retrospective estimates of their daily cocaine use over a specified time period that can vary up to 12 months from the interview date. Several memory aids can be used to enhance recall (e.g., calendar; key dates serve as anchors for reporting cocaine use). […] The method is recommended for use when relatively precise estimates of cocaine use are necessary, especially when a complete use pre-posttreatment). Clinically, the TLFB can be used to provide feedback about one's cocaine consumption in an effort to increase a client's motivation to change. • 2. […]

Assay [2] shares this test system. Nature of the assay: Phase 2 trial: hair analysis. Type of assay: in vivo, human. The following applies: end of study vs baseline; compared to placebo. As to the method:
Hair analysis was used as an adjunct to urine samples collection and helps document drug use history. Hair specimens were collected and at baseline and at the end of the study. Patients with hair shorter than 3 cm or bleached and/or dyed hair (proximal 4 cm) were excluded from this assessment. If only the tip of long hairs were bleached, samples were collected.
The quantitative measures were log-transformed and individual ratio between end of study and baseline was calculated and listed by treatment, subject and visit/time. The log-transformed data profiles over time were explored, compared between treatment groups and the relationship between cocaine and alcohol measures in hair, in urine and timeline follow-back was assessed.
Summary statistics were provided by treatment and visit/time. Heatmaps to visualize the trend in the log-transformed quantitative measures were created. To explore the relationship between the log-transformed quantitative measures of the compounds being assayed and the timeline follow-back cocaine and alcohol measures, scatterplots were created for the end of study results. […]
To ensure that the hair analysis quantitative parameters only had numerical values, censored values were imputed as follows • Values below the LLOQ were replaced by LLOQ/2. • Values above the ULOQ were replaced by ULOQ.

Regarding `COC(=O)N1CC[C@@H]2[C@H]1CCC[C@@]2(O)C#Cc1cccc(C)c1` [mavoglurant, (-)-(3aR,4S,7aR)-4-Hydroxy-4-m-tolylethynyl-octahydro-indole-1-carboxylic acid methyl ester], in assay [1] (98-day administration, P=0.021, listed as Mavoglurant), the “cocaine use by TLFB, difference mavoglurant-placebo (result in words)” value is reported as “reduced cocaine consumption significantly”. Moreover, the “P(θmavoglurant−θplacebo<0|data), PoC criterion 1” value in assay [1] (Bayesian analysis over the treatment period (14 weeks), criterion met (P>0.90)) was 0.999. The “P(θmavoglurant−θplacebo<−10%|data), PoC criterion 2” value in assay [1] (Bayesian analysis over the treatment period (14 weeks), criterion not met (P<0.50)) came to 0.366. Moreover, the “difference between groups in monthly proportion of cocaine use” value in assay [1] (Month 2, P=0.042) came to 8%; in assay [1] (Month 3, P=0.003), 14%. Further, the “posterior probability in reducing cocaine use, treatments difference <0” value in assay [1] (cocaine TLFB, 98-day administration (50/100 mg b.i.d. uptitration, then 200 mg b.i.d. 84 days, modified release), mavoglurant vs placebo, Bayesian analysis) is 99.0%. In addition, the “posterior probability in reducing cocaine use, treatments difference <−10%” value in assay [1] (cocaine TLFB, 98-day administration, mavoglurant vs placebo, Bayesian analysis) was 36.6%. Further, in assay [1] (over the treatment period (14 weeks), mavoglurant vs placebo), the “difference between groups in proportion of cocaine use days” value was 8.7%. For the same compound, in assay [1] (over the treatment period, FIG. 2B), the “observed difference between mavoglurant and placebo in proportion of cocaine use days” value is listed as −0.087. For the same compound, in assay [2], the “hair analysis: cocaine and metabolite, change from baseline” value is “higher reductions from baseline as compared to placebo”.

(Values after patent US20240050408A1, “USE OF MGLUR5 ANTAGONISTS FOR TREATING AMPHETAMINE ADDICTION” (NOVARTIS AG, priority 2020, published 2024).)
